Data published in ChEMBL document CHEMBL1126472, “Multipurpose receptor ligands: -carboline cholecystokinin antagonists” (Bioorg Med Chem Lett, 1993).

Molecular target: not listed separately
Experiment: Tested for its activity to inhibit the binding of [125I]CCK-33 to Cholecystokinin type B receptor in guinea pig brain

| SMILES | IC50 [nM] |
| --- | --- |
| CN1C(=O)[C@H](NC(=O)Nc2ccc(Cl)cc2)N=C(c2ccccc2)c2ccccc21 | 5.5 |
| CN1C(=O)[C@@H](NC(=O)Nc2ccc(Cl)cc2)N=C(c2ccccc2)c2ccccc21 | 410 |

Molecular target: T1, Cholecystokinin receptor type A (Rattus norvegicus, UniProt P30551)
T1 sequence (P30551 whole entry): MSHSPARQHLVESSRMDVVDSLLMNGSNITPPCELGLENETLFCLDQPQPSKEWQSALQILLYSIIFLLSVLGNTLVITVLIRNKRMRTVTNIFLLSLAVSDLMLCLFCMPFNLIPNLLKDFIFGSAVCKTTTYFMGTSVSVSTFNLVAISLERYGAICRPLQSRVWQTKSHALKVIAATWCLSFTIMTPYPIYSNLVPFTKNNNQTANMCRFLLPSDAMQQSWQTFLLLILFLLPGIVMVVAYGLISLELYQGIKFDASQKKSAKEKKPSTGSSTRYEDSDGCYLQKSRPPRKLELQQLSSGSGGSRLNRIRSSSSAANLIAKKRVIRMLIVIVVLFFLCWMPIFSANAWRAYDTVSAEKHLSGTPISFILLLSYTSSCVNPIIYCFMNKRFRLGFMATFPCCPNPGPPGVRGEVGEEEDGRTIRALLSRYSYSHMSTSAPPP
Experiment: Tested for its activity to inhibit the binding of [125I]CCK-33 to Cholecystokinin type A receptor in rat pancreas

| IC50 [nM] | SMILES |
| --- | --- |
| 7100 | O=C(Nc1cc2c3ccccc3nc-2c[nH]1)c1ccccc1 |
| 710 | Cn1c(C(=O)Nc2cc3c4ccccc4nc-3c[nH]2)cc2ccccc21 |
| > 100000 | Nc1cc2c(cn1)[nH]c1ccccc12 |
| 330 | O=C(CCc1ccccc1)Nc1cc2c3ccccc3nc-2c[nH]1 |
| 40 | O=C(Cc1ccccc1)Nc1cc2c3ccccc3nc-2c[nH]1 |
| 85 | O=C(Nc1ccc(Cl)cc1)Nc1cc2c3ccccc3nc-2c[nH]1 |
| 24 | O=C(Cc1c[nH]c2ccccc12)Nc1cc2c3ccccc3nc-2c[nH]1 |
| 3500 | O=C(Nc1cc2c3ccccc3nc-2c[nH]1)c1ccc(Cl)cc1 |

| SMILES | IC50 [nM] |
| --- | --- |
| CN1C(=O)[C@@H](NC(=O)Nc2cc3c4ccccc4nc-3c[nH]2)N=C(c2ccccc2)c2ccccc21 | 110 |
| CN1C(=O)C(NC(=O)Cc2c[nH]c3ccccc23)N=C(c2ccccc2)c2ccccc21 (stereo unspecified) | 1000 |
| CN1C(=O)[C@H](NC(=O)Nc2cc3c4ccccc4nc-3c[nH]2)N=C(c2ccccc2)c2ccccc21 | 89 |
| COC(=O)c1cc2c(cn1)[nH]c1ccccc12 [BETA-CCM] | > 100000 |

Molecular target: not listed separately
Experiment: Tested for its activity to inhibit the binding of [125I]gastrin to gastric glands (gastrin) in guinea pig

| SMILES | IC50 [nM] |
| --- | --- |
| CN1C(=O)[C@H](NC(=O)Nc2ccc(Cl)cc2)N=C(c2ccccc2)c2ccccc21 | 12 |
| CN1C(=O)[C@@H](NC(=O)Nc2ccc(Cl)cc2)N=C(c2ccccc2)c2ccccc21 | 540 |
